# From PMC9305975 (Journal of the American Chemical Society, 2022)
# Target: VcRibB (RibB, 3,4-dihydroxy-2-butanone 4-phosphate synthase) (Vibrio cholerae, UniProt Q9KKP2)
# Settings: two Mn2+ in the active site; non-substrate analogue
# Chain of VcRibB (RibB, 3,4-dihydroxy-2-butanone 4-phosphate synthase) (Q9KKP2 whole entry): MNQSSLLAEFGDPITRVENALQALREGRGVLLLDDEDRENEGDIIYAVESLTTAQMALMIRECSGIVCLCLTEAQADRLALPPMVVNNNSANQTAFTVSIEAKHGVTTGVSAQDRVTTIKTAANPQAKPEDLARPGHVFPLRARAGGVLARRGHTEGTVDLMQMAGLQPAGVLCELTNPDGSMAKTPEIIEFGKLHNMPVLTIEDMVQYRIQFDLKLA
structure (smiles),measurement,value
O=C(CO)[C@H](O)[C@@H](O)COP(=O)(O)O [L-xylulose 5-phosphate],X-ray crystal structure; EPR,"L-xylulose 5-phosphate (L-Xy5P), showing two manganese ions and a significantly different, more twisted binding"
